Here are results for five compounds from patent US7687508B2, “Cyclic derivatives as modulators of chemokine receptor activity” (Bristol-Myers Squibb Company, priority 2006, dated 2010).

What is called IC50 is the concentration that gives 50% inhibition. By inhibition is commonly meant the drop in the measured response relative to a control, in per cent. As a reminder, the clearance is the rate of elimination divided by the concentration. Read a high clearance as efficient removal. One may read the AUC as concentration integrated over time. Usually bioavailability stands for the share of a dose that reaches the circulation, judged against a reference dose that is usually intravenous. One may read the Papp as a coefficient for how fast a substance crosses the barrier. A low value points to slow passage.

Molecules are shown by their SMILES. Bounds are passed on as bounds.

In series [1] the target is T1, human CCR2 (Homo sapiens, UniProt P41597).
T1 sequence (P41597 1-360 isoform P41597-2): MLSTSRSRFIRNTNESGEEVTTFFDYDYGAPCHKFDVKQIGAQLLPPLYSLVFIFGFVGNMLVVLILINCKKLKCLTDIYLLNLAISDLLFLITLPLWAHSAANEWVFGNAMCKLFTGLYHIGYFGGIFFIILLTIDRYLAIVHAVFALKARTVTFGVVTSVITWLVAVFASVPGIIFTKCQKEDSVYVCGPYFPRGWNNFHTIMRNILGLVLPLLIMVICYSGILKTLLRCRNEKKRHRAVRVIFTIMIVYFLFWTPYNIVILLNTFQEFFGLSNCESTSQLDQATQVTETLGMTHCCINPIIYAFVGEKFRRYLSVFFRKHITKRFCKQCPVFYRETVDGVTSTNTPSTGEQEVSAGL
In words: Human peripheral blood mononuclear cell binding (CCR2 binding), 125I-human MCP-1 tracer. Also on record: hPBMCs were isolated from human leukopak (Biological Specialty Inc.); endogenous in cells; host or cells: human peripheral blood mononuclear cells from leukopak (Biological Specialty Inc.). The settings on record: hPBMCs, 125I-MCP-1; figure in parentheses in the cell not copied (count of determinations); read-out: CCR2 Binding IC50. The method, then: See also: Yoshimura et al., J. Immunol. 1990, 145, 292. The human CCR2 binding assay was established with human peripheral blood mononuclear cells (hPBMCs) using ^125I-human MCP-1 as the tracer ligand. hPBMCs were isolated from human leukopak (Biological Specialty Inc.) using a standard protocol with Ficoll-Hypaque (Mediatech Cellgro). Isolated hPBMCs were washed and diluted to 1×10^7/ml in binding buffer (RPMI-1640, 0.1% BSA, 20 mM Hepes, pH 7.4). ^125I-MCP-1 (NEN/Perk Elmer) was diluted to 0.45 nM in binding buffer. The compound was diluted in binding buffer at 3-fold the final concentrations used in the binding assay. The binding assay was performed using a 96-well filter plate (Millipore). Total ^125I-MCP-1 binding was assessed as follows: to each reaction of a total volume of 150 μl were added 5×10^5 cells, 0.15 nM […], and compound such that the final concentration ranged from 0 to 100 nM. The plate was incubated at room temperature for 30 minutes followed by three washes with RPMI-1640, 0.1% BSA, 0.4 M NaCl, 20 mM Hepes, pH 7.4 using a vacuum manifold filtration (Millipore). After washing, the plate was air-dried for 60 minutes at room temperature. This was followed by adding 25 μl of Microscint 20 into each well. The plate was sealed and counted on the Trilux for 1 minute. Non-specific binding was determined in the presence of 300 nM cold MCP-1 (PeproTech Inc.). Specific 1-MCP-1 was calculated as the difference between total and non-specific binding. All conditions were tested in duplicate.

The target of series [2] is T2, hERG (Homo sapiens, UniProt Q12809).
T2 construct: expressed in transfected cells
In words: hERG patch clamp (whole-cell, HEK-293). The format is cell-based. As to conditions: for inhibition at 10000 nM: pH 7.4, 10,000 nM; for inhibition at 30000 nM: pH 7.4, 30,000 nM. On the technique in general: The hERG channel carries a current that helps repolarise heart muscle cells.

The target in series [3] is human cardiac sodium channel, SCN5A (Nav1.5) (Homo sapiens, UniProt Q14524). In words: Sodium channel patch clamp (whole-cell, HEK-293). In kind it is cell-based. As to conditions: HEK-293 cells expressing human cardiac sodium channel SCN5A, 30,000 nM, read-out: Na+ channel patch clamp (% inhibition). On the procedure:
The compound was tested at a protein-free aqueous buffer. For determining steady state inhibition, sodium currents were elicited every 5 seconds using the following voltage protocol: cells were held at a potential of −90 mV and stepped to −20 mV for 60 ms. Effects were calculated by measuring inhibition of peak current during the test pulse to −20 mV. Rate-dependence of inhibition was assessed by stimulation at frequencies of 1 Hz and 4 Hz.

The target of series [4] is T2, hERG. The experiment in a line: hERG flux (Tl+ flux, FLIPR) in HEK293 cells. The settings on record: HEK293 cells stably expressing hERG. The format is cell-based. The method, then:
HEK293 cells stably-expressing hERG channels were grown (37° C., 5% CO2) in Dulbecco's Modified Eagle's Media supplemented with 10% Sigma fetal bovine serum, non-essential amino acids, 2 mM L-glutamine and 500 μg/ml G418, at incubator.
A 2 mM stock of BTC-AM dye (Molecular Probes, Eugene, Oreg.) was prepared in 100% DMSO and then added 1:1 to 10% (w/v) pluronic acid in DMSO on the day of assay. The dye was then diluted in hERG external EP buffer (140 mM NaCl, 4.0 mM KCl, 1.8 mM CaCl2, 1.0 mM MgCl2, 10 mM HEPES, pH 7.3 and 10 mM glucose; all buffer components obtained from Sigma Chemical). […] Cells are incubated at 21° C. for 45 minutes.
These compounds were then serially-diluted at a 1:2 ratio in DMSO in columns 1-10 and 11-20 of a 384-well plate. Assay-ready plates were generated by stamping 2.5 μl from the DMSO serially diluted plate, which was prepared on the Velocity 11 BioCel. Aqueous plates were created by adding 48 μl of EP buffer and then were diluted 30-45 minutes before the assay was read on the FLIPR. […] Final DMSO concentration in the assay is 1%. Assay-ready aqueous plates were prepared and diluted on a Cybio liquid handler.
Data collection proceeded every second for 48 seconds, and then continued every three seconds for an additional 2 minutes.
The dynamic range of the assay was determined from blanks and totals wells. The totals wells (columns 21 and 22) define maximal hERG activation for the plate (no test compound present), and the blanks wells (columns 23 and 24) define 100% hERG inhibition. […] Raw data points in each sample well were first corrected for cell/signal variation, negative control (blanks) background, and normalized to the positive controls (totals) using the online FLIPR software. Test compound concentration response curves for the hERG Tl^+ flux data were then fit using Excel Fit (ID Business Solutions Limited, Surrey, UK) with a single-site logistic equation, Y=A+((B−A)/1+((C/X)^D))) where A=maximal inhibition. Data were analyzed by fitting maximum amplitudes of change in fluorescence for Tl^+ flux for a given condition of test compound.

The nature of series [5]: Single-dose pharmacokinetics in monkeys. The format is in vivo. The settings on record: male, cynomolgus monkey, plasma, dose per compound (mg/kg); for clearance: IV; for AUC: PO; for bioavailability: oral bioavailability. The text has this:
(1500-2000×g) to obtain plasma.

Series [6] in a line: Parallel Artificial Membrane Permeability Assay (PAMPA). In kind it is in vitro ADME. As to conditions: apical and basolateral pH 7.4. On the procedure: All experiments are conducted in triplicate determinations.
(The PAMPA barrier holds no transporters, so it reflects passive diffusion.)

Series [7] is described as follows: Single-dose pharmacokinetics in rats. In kind it is in vivo. As to conditions: male, Sprague-Dawley, plasma, rat, dose per compound (mg/kg); for clearance: IV; for AUC: PO; for bioavailability: oral bioavailability. The method, then:
(1500-2000×g) to obtain plasma. […] Plasma samples, obtained by centrifugation at 4° C.

The target of series [8] is T1, human CCR2. In words: CCR2 chemotaxis (MCP-1-induced, THP-1 cells). In kind it is cell-based. Also on record: hPBMCs were isolated from human leukopak (Biological Specialty Inc.); endogenous in cells; host or cells: human peripheral blood mononuclear cells from leukopak (Biological Specialty Inc.). On the procedure: The human CCR2 chemotaxis assay was conducted with the human monocytic cell line, THP-1. THP-1 cells were first labeled with the fluorescent dye Calcein-AM in phenol red-free, BSA-free RPMI-1640 (pH 7.4) at 37° C. for 30 minutes with gentle mixing every 15 minutes. The labeled cells were then washed and re-suspended at 1×10^5/ml in chemotaxis buffer (phenol red-free RPMI-1640, 0.1% BSA, pH 7.4). The test compound was diluted in chemotaxis buffer such that the final assay concentration ranged from 0.01 nM to 1 μM. […] To perform the assay, an equal volume of test compound dilutions was mixed with an equal volume of labeled THP-1 cells (Mixture 1), and an equal volume of test compound dilutions was mixed with an equal volume of diluted MCP-1 ligand (Mixture 2). Both mixtures were incubated independently at 37° C. for 10 minutes followed by gentle mixing. MCP-1-induced chemotaxis was then measured in a chemotaxis plate (Becton Dickinson) by placing 50 μl of Mixture 1 in the top chamber and 225 μl of Mixture 2 in the bottom chamber. The plate was covered with a lid and incubated at 37° C. for 30 minutes. 30 minutes later, the plate was read on a Cytofluor. All conditions were tested in duplicate. […] The inhibition achieved by graded concentrations of test compound was calculated as a percentage of the compound-free MCP-1 control.

T2 sequence (Q12809 whole entry): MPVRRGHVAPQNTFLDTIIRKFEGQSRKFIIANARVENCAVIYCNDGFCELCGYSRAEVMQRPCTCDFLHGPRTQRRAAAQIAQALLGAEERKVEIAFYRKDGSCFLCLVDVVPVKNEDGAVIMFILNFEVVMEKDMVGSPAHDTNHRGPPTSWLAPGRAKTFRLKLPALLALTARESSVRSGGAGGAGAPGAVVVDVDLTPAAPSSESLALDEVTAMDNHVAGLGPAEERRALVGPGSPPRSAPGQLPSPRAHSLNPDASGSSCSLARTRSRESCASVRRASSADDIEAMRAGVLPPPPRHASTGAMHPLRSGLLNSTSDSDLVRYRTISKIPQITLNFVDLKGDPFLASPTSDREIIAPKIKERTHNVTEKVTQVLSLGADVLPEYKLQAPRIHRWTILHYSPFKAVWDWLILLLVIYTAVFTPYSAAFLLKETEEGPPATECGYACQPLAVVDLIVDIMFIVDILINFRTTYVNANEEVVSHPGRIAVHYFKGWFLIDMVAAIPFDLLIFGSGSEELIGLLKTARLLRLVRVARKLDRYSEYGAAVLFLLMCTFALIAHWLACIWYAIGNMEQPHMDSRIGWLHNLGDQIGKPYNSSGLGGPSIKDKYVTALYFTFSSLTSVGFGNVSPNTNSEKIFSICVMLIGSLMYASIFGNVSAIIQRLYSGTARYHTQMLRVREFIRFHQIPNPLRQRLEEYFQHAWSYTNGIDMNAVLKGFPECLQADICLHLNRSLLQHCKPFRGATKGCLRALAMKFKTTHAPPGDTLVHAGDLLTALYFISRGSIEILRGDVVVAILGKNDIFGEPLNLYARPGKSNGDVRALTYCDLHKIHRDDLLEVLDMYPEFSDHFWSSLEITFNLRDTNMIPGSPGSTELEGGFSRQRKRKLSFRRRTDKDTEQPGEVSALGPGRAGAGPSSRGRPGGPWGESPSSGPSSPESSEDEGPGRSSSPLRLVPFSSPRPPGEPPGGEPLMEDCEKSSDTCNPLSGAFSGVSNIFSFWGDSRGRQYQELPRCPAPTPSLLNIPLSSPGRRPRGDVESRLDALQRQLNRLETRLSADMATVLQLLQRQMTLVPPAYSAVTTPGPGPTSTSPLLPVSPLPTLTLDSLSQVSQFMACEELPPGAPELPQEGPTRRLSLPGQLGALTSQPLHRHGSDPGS
Sequence of human cardiac sodium channel, SCN5A (Nav1.5) (Q14524 whole entry): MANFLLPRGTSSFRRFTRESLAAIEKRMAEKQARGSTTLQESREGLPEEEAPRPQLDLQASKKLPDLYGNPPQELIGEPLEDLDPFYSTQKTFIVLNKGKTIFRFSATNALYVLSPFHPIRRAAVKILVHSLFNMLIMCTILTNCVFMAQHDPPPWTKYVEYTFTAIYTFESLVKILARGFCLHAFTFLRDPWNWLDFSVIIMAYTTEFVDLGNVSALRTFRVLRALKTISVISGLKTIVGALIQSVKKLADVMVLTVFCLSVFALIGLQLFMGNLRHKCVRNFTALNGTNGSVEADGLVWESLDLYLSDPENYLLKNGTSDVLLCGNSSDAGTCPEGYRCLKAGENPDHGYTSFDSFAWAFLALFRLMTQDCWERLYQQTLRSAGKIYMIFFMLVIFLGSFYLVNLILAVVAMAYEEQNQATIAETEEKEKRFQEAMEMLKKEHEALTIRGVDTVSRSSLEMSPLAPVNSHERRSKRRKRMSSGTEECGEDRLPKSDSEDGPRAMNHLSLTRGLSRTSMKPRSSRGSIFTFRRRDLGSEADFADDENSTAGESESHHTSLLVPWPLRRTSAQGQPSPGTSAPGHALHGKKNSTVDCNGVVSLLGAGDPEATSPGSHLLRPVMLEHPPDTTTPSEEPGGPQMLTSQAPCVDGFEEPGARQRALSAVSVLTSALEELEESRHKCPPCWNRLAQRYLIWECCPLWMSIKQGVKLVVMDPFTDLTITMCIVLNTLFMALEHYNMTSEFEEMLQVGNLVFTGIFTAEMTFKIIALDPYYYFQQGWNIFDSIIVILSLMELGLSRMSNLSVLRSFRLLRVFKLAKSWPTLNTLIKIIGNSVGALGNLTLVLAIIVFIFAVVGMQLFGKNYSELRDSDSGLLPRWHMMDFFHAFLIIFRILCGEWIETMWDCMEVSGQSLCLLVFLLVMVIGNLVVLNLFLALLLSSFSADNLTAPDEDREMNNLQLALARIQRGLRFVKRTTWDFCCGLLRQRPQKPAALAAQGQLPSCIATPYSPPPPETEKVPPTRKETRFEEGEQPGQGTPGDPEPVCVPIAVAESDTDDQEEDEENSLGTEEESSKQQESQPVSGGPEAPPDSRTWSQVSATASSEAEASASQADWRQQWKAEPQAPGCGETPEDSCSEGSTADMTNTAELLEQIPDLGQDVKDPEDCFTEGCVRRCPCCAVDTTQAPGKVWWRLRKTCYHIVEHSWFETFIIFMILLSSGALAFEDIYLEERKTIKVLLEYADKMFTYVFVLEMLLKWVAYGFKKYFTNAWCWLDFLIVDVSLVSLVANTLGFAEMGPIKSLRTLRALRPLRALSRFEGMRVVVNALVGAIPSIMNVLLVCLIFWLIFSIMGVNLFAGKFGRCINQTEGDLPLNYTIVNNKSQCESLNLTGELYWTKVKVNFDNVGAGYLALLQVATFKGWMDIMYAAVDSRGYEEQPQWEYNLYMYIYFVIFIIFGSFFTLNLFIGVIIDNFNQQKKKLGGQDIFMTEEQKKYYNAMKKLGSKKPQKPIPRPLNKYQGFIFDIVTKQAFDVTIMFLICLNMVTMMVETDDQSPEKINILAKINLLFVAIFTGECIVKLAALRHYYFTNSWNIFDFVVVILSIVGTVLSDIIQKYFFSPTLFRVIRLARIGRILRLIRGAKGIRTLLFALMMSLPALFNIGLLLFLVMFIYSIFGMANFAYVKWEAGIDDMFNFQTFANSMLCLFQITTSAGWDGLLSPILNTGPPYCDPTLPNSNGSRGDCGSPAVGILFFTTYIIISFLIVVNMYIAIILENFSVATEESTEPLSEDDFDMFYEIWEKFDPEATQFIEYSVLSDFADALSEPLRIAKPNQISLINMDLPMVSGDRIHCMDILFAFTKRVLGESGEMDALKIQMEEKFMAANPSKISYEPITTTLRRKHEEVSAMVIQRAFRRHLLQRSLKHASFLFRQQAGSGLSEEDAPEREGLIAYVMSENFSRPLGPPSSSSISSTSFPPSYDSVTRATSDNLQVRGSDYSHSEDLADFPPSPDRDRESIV

On to `CN[C@@H]1CC[C@H](N2CC[C@H](Nc3ncnc4ccc(C(F)(F)F)cc34)C2=O)[C@H](NC(C)=O)C1` [Example 3, N-((1R,2S,5R)-5-(methylamino)-2-((3S)-2-oxo-3-((6-(trifluoromethyl)-4-quinazolinyl)amino)-1-pyrrolidinyl)cyclohexyl)acetamide], for which the 50% inhibitory concentration (IC50) on human CCR2 [1] worked out at 4.74 ± 0.58 nM. For the same compound, on hERG [2], 10000 nM produced 6% inhibition and the inhibition at 30000 nM was 24%. Moreover, the inhibition at 30000 nM in series [3] is 3%. For the same compound, the IC50 at hERG [4] is > 80000 nM. In addition, in series [5], the clearance was 15 mL/min/kg, the AUC is 2.05 µM·h and the bioavailability was 91%.

For `CC(C)(C)N[C@@H]1CC[C@H](N2CC[C@H](NC(=O)c3ccnc(C(C)(C)C)n3)C2=O)[C@H](NS(C)(=O)=O)C1` [Example 11, 2-tert-butyl-N—((S)-1-((1S,2R,4R)-4-(tert-butylamino)-2-(methylsulfonamido)cyclohexyl)-2-oxopyrrolidin-3-yl)pyrimidine-4-carboxamide], on human CCR2 [1], the half-maximal inhibitory concentration (IC50) is 1.91 ± 0.52 nM. This compound displayed a Papp at 4 h, 100 µM in series [6] of 35 ×10⁻⁶ cm/s. In addition, the inhibition at 30000 nM against hERG [2] amounted to 15%. Besides, in series [7], the clearance turned out to be 56 mL/min/kg, the AUC turned out to be 3.04 µM·h and the bioavailability is 52%. For the same compound, on human CCR2 [8], 0.92 nM corresponded to half-maximal inhibition (IC50). For the same compound, the IC50 against hERG [4] was > 80000 nM.

On to `CCC(=O)N[C@@H]1C[C@H](NC(C)(C)C)CC[C@@H]1N1CC[C@H](NC(=O)c2ccnc(C(C)(C)C)n2)C1=O` [Example 12, 2-tert-butyl-N-((3S)-1-((1S,2R,4R)-4-(tert-butylamino)-2-(propionylamino)cyclohexyl)-2-oxo-3-pyrrolidinyl)-4-pyrimidinecarboxamide], for which, at human CCR2 [1], the half-maximal inhibitory concentration (IC50) came to 4.49 ± 1.35 nM. In series [6], the Papp at 4 h, 100 µM was 23.9 ×10⁻⁶ cm/s. At hERG [2], this compound showed an inhibition at 10000 nM of 6% and an inhibition at 30000 nM of 7%. In series [7], this compound displayed a clearance of 59 mL/min/kg, an area under the curve (AUC) of 5.23 µM·h and a bioavailability of 91%. Also, on hERG [4], the concentration for half-maximal inhibition (IC50) is > 80000 nM. This compound registered an AUC in series [5] of 0.413 µM·h.

In the case of `CC(C)(C)N[C@@H]1CC[C@H](N2CC[C@H](Nc3ncnc4cnc(C(C)(C)C)nc34)C2=O)[C@H](NS(C)(=O)=O)C1` [Example 13, N-((1R,2S,5R)-5-(tert-butylamino)-2-((3S)-3-((6-tert-butylpyrimido[5,4-d]pyrimidin-4-yl)amino)-2-oxo-1-pyrrolidinyl)cyclohexyl)methanesulfonamide], the results for the IC50 at human CCR2 [1], at human CCR2 [8] and against hERG [4] were 4.02 ± 1.31 nM, 0.49 nM and > 80000 nM, respectively. The Papp at 4 h, 100 µM in series [6] was 54.1 ± 6.3 ×10⁻⁶ cm/s. Further, at hERG [2], at 30000 nM the inhibition was 10%. Further, the clearance in series [7] is 26 mL/min/kg. For the same compound, the AUC in series [7] came out at 10.5 µM·h; in series [5] it was 0.263 µM·h. The bioavailability in series [7] came to 88%.

Take `CO[C@@H]1CC[C@H](N2CC[C@H](Nc3ncnc4ccc(C(F)(F)F)cc34)C2=O)[C@H](CNC(C)=O)C1` [Example 15, N-(((1S,2S,5R)-5-methoxy-2-((3S)-2-oxo-3-((6-(trifluoromethyl)-4-quinazolinyl)amino)-1-pyrrolidinyl)cyclohexyl)methyl)acetamide]: the IC50 was 3.34 ± 0.71 nM at human CCR2 [1], 0.92 ± 0.67 nM against human CCR2 [8] and > 80000 nM on hERG [4]. This compound yielded an apparent permeability (Papp) at 4 h, 100 µM in series [6] of 18.6 ×10⁻⁶ cm/s. At hERG [2], this compound displayed an inhibition at 30000 nM of 29%. Testing at 100000 nM on hERG [2] (pH 7.4, 100,000 nM) gave an inhibition of 47%. Further, the clearance in series [7] was 23 mL/min/kg; in series [5], 28 mL/min/kg. Also, the AUC in series [7] was 16.2 µM·h; in series [5] it was 0.333 µM·h. The bioavailability in series [7] was found to be 93%; in series [5] it was 19%.
